Laboratory results from ChEMBL document CHEMBL3399978, “Synthesis and optimization of picolinamide derivatives as a novel class of 11β-hydroxysteroid dehydrogenase type 1 (11β-HSD1) inhibitors” (Bioorg Med Chem Lett, 2015).
One block for each compound: values may come before it. Active and inactive are the calls of the source. No cut-off for these calls is given here.

Experiments:
[1] = Metabolic stability in mouse liver microsomes assessed as compound remaining after 30 mins; type: ADME; conditions: read-out: Stability
[2] = biological target: T1, 11-beta-hydroxysteroid dehydrogenase 1 (Homo sapiens, UniProt P28845); experiment: Inhibition of human 11beta-HSD1 using microsomal fraction and NADPH assessed as conversion of cortisone to cortisol by biochemical enzyme assay
[3] = biological target: T1, 11-beta-hydroxysteroid dehydrogenase 1; experiment: Inhibition of human 11beta-HSD1 expressed in HEK293 cells using NADPH assessed as conversion of cortisone to cortisol by cell-based assay
[4] = biological target: 11-beta-hydroxysteroid dehydrogenase 1 (Mus musculus, UniProt P50172); experiment: Inhibition of mouse 11beta-HSD1 using microsomal fraction and NADPH assessed as conversion of cortisone to cortisol by biochemical enzyme assay
[5] = biological target: T2, 11-beta-hydroxysteroid dehydrogenase type 2 (Homo sapiens, UniProt P80365); experiment: Inhibition of human 11beta-HSD2 using microsomal fraction and NADPH assessed as conversion of cortisone to cortisol by biochemical enzyme assay
T2 sequence (P80365 whole entry): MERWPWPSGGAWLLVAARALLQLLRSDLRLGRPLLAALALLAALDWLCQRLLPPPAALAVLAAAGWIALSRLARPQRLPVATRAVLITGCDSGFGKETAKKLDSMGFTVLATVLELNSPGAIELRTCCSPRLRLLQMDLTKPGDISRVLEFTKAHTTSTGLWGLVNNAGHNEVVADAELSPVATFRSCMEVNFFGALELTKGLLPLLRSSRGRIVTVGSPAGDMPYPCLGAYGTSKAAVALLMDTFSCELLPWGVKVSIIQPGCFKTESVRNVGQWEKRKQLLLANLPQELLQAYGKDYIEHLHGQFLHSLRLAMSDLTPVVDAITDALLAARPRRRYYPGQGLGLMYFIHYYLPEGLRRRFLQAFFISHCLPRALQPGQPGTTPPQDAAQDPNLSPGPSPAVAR

[6] = Clearance in mouse at 5 mg/kg, iv; type: ADME, organism-based; parameters: dose 5 mg/kg, route intravenous; conditions: in vivo
[7] = Oral bioavailability in mouse at 20 mg/kg; type: ADME, organism-based; conditions: in vivo
[8] = tested on: Mus musculus; experiment: Ex vivo inhibition of 11beta-HSD1 in male C57BL/6 mouse liver assessed as conversion of cortisone to cortisol at 30 mg/kg, po after 2 hrs by enzyme immunoassay; type: functional; conditions: C57BL/6, Liver
[9] = tested on: Mus musculus; experiment: Ex vivo inhibition of 11beta-HSD1 in male C57BL/6 mouse liver assessed as conversion of cortisone to cortisol at 30 mg/kg, po after 6 hrs by enzyme immunoassay; type: functional; conditions: C57BL/6, Liver
[10] = tested on: Mus musculus; experiment: Ex vivo inhibition of 11beta-HSD1 in male C57BL/6 mouse epididymal fat assessed as conversion of cortisone to cortisol at 30 mg/kg, po after 2 hrs by enzyme immunoassay; type: functional; conditions: C57BL/6, 2 h
[11] = tested on: Mus musculus; experiment: Ex vivo inhibition of 11beta-HSD1 in male C57BL/6 mouse epididymal fat assessed as conversion of cortisone to cortisol at 30 mg/kg, po after 6 hrs by enzyme immunoassay; type: functional; conditions: C57BL/6, 6 h
[12] = tested on: Mus musculus; experiment: Reduction in non-fasting blood glucose level in ob/ob type 2 diabetic mouse model at 10 mg/kg, po once daily after 10 days relative to vehicle treated control; type: functional; conditions: 240 h
[13] = tested on: Mus musculus; experiment: Reduction in LDL cholesterol level in ob/ob type 2 diabetic mouse model at 10 mg/kg, po once daily after 10 days relative to vehicle treated control; type: functional, organism-based; parameters: dose 10 mg/kg
[14] = tested on: Mus musculus; experiment: Reduction in triglyceride level in ob/ob type 2 diabetic mouse model at 10 mg/kg, po once daily after 10 days relative to vehicle treated control; type: functional, organism-based; parameters: dose 10 mg/kg
[15] = tested on: Mus musculus; experiment: Toxicity in ob/ob type 2 diabetic mouse model assessed as HDL cholesterol at 10 mg/kg, po once daily after 10 days relative to vehicle treated control; type: organism-based; parameters: dose 10 mg/kg, route oral; conditions: in vivo, 240 h
[16] = tested on: Mus musculus; experiment: Toxicity in ob/ob type 2 diabetic mouse model assessed as food intake at 10 mg/kg, po once daily after 10 days relative to vehicle treated control; type: organism-based; parameters: dose 10 mg/kg, route oral; conditions: in vivo, 240 h
[17] = tested on: Mus musculus; experiment: Toxicity in ob/ob type 2 diabetic mouse model assessed as body weight at 10 mg/kg, po once daily after 10 days relative to vehicle treated control; type: organism-based; parameters: dose 10 mg/kg, route oral; conditions: in vivo, 240 h

T1 sequence (P28845 whole entry): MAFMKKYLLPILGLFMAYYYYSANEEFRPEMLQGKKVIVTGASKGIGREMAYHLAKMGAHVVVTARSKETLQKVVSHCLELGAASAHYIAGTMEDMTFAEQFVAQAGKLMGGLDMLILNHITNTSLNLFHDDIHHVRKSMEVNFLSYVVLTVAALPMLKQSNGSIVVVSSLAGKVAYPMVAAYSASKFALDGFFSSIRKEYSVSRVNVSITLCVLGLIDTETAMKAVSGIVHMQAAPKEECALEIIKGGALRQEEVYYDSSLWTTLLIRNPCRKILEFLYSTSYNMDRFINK
11-beta-hydroxysteroid dehydrogenase 1 (Mus musculus, UniProt P50172), sequence (P50172 whole entry): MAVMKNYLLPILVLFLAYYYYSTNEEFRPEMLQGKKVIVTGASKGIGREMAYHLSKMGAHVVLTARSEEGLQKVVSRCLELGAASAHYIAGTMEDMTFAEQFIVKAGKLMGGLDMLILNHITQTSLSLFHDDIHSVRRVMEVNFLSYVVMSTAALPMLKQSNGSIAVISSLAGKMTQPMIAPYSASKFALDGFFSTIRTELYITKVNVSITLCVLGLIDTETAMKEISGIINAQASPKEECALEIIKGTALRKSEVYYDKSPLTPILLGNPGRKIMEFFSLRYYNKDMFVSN

remaining at 0.5 h [1]: 86%
SMILES: COc1ccc(N2CCN(c3cccc(C(=O)N[C@H]4C5CC6CC4C[C@](O)(C6)C5)n3)CC2)cc1

remaining at 0.5 h [1]: 77%
SMILES: COc1ccc(N2CCN(c3cccc(C(=O)N[C@H]4C5CC6CC4C[C@](O)(C6)C5)n3)[C@@H](C)C2)cc1

IC50 [2]: 2.2 nM
IC50 [3]: 3.1 nM
IC50 [4]: 1.8 nM
IC50 [5]: > 10000 nM
remaining at 0.5 h [1]: 97%
clearance [6]: 14.2 mL/min/kg
bioavailability [7]: 41%
SMILES: C[C@@H]1CN(c2ccc(S(C)(=O)=O)cc2)CCN1c1cccc(C(=O)N[C@H]2C3CC4CC2C[C@](O)(C4)C3)n1
inhibition in vivo at 30 mg/kg [8]: 85%
inhibition in vivo at 30 mg/kg [9]: 77%
inhibition in vivo at 30 mg/kg [10]: 95%
inhibition in vivo at 30 mg/kg [11]: 86%
inhibition in vivo at 10 mg/kg [12]: 41%
inhibition [13]: Active
inhibition [14]: Active
Activity [15]: Non-toxic
Activity [16]: Non-toxic
Activity [17]: Non-toxic

remaining at 0.5 h [1]: 84%
SMILES: C[C@@H]1CN(c2ccc(C#N)cc2)CCN1c1cccc(C(=O)N[C@H]2C3CC4CC2C[C@](O)(C4)C3)n1

remaining at 0.5 h [1]: 57%
SMILES: C[C@@H]1CN(c2ccc(C(N)=O)cc2)CCN1c1cccc(C(=O)N[C@H]2C3CC4CC2C[C@](O)(C4)C3)n1

remaining at 0.5 h [1]: 80%
SMILES: COc1ccc(N2CCN(c3cccc(C(=O)N[C@H]4C5CC6CC4C[C@](O)(C6)C5)n3)[C@H](C)C2)cc1

IC50 [2]: 4.1 nM
IC50 [3]: 4.9 nM
IC50 [4]: 6.6 nM
IC50 [5]: > 10000 nM
remaining at 0.5 h [1]: 84%
clearance [6]: 7.67 mL/min/kg
bioavailability [7]: 32%
SMILES: C[C@@H]1CN(c2ccc(C(C)(C)O)cc2)CCN1c1cccc(C(=O)N[C@H]2C3CC4CC2C[C@](O)(C4)C3)n1
inhibition in vivo at 30 mg/kg [8]: 73%
inhibition in vivo at 30 mg/kg [9]: 58%
inhibition in vivo at 30 mg/kg [10]: 94%
inhibition in vivo at 30 mg/kg [11]: 77%

IC50 [2]: 4.2 nM
IC50 [3]: 6.8 nM
remaining at 0.5 h [1]: 88%
SMILES: C[C@H]1CN(c2ccc(S(C)(=O)=O)cc2)CCN1c1cccc(C(=O)N[C@H]2C3CC4CC2C[C@](O)(C4)C3)n1

remaining at 0.5 h [1]: 82%
SMILES: C[C@H]1CN(c2ccc(C#N)cc2)CCN1c1cccc(C(=O)N[C@H]2C3CC4CC2C[C@](O)(C4)C3)n1

The remaining lines, values behind:

SMILES: N#Cc1ccc(N2CCN(c3cccc(C(=O)N[C@H]4C5CC6CC4C[C@](O)(C6)C5)n3)CC2)cc1F
remaining at 0.5 h [1]: 79%

SMILES: O=C(N[C@H]1C2CC3CC1C[C@](O)(C3)C2)c1cccc(N2CCN(c3ccc(C(F)(F)F)cc3)CC2)n1
remaining at 0.5 h [1]: 79%

SMILES: NC(=O)c1ccc(N2CCN(c3cccc(C(=O)N[C@H]4C5CC6CC4C[C@](O)(C6)C5)n3)CC2)c(Cl)c1
remaining at 0.5 h [1]: 32%

SMILES: N#Cc1ccc(C2CCN(c3cccc(C(=O)N[C@H]4C5CC6CC4C[C@](O)(C6)C5)n3)CC2)cc1
remaining at 0.5 h [1]: 46%

SMILES: CS(=O)(=O)c1ccc(N2CCN(c3cccc(C(=O)N[C@H]4C5CC6CC4C[C@](O)(C6)C5)n3)CC2)cc1
IC50 [2]: 1.6 nM
IC50 [3]: 3.9 nM
IC50 [4]: 2.5 nM
IC50 [5]: > 10000 nM
remaining at 0.5 h [1]: 87%
clearance [6]: 29.7 mL/min/kg
bioavailability [7]: 17%
inhibition in vivo at 30 mg/kg [8]: 53%
inhibition in vivo at 30 mg/kg [9]: 15%
inhibition in vivo at 30 mg/kg [10]: 70%
inhibition in vivo at 30 mg/kg [11]: 22%

SMILES: O=C(N[C@H]1C2CC3CC1C[C@](O)(C3)C2)c1cccc(N2CCN(c3ccc([N+](=O)[O-])cc3)CC2)n1
remaining at 0.5 h [1]: 74%

SMILES: N#Cc1ccc(N2CCC(c3cccc(C(=O)N[C@H]4C5CC6CC4C[C@](O)(C6)C5)n3)CC2)cc1
remaining at 0.5 h [1]: 58%

SMILES: Cc1ccc(N2CCN(c3cccc(C(=O)N[C@H]4C5CC6CC4C[C@](O)(C6)C5)n3)CC2)cc1
remaining at 0.5 h [1]: 74%

SMILES: NC(=O)c1ccc(N2CCN(c3cccc(C(=O)N[C@H]4C5CC6CC4C[C@](O)(C6)C5)n3)CC2)cc1
remaining at 0.5 h [1]: 65%

SMILES: N#Cc1ccc(C2CCN(c3cccc(C(=O)N[C@H]4C5CC6CC4C[C@](O)(C6)C5)n3)CC2)nc1
remaining at 0.5 h [1]: 63%

SMILES: N#Cc1ccc(N2CCC(c3cccc(C(=O)N[C@H]4C5CC6CC4C[C@](O)(C6)C5)n3)CC2)nc1
remaining at 0.5 h [1]: 52%

SMILES: N#Cc1ccc(N2CCN(c3cccc(C(=O)N[C@H]4C5CC6CC4C[C@](O)(C6)C5)n3)CC2)c(Cl)c1
remaining at 0.5 h [1]: 88%

SMILES: O=C(N[C@H]1C2CC3CC1C[C@](O)(C3)C2)c1cccc(N2CCN(c3ccc(Cl)cc3)CC2)n1
remaining at 0.5 h [1]: 69%

SMILES: CNC(=O)c1ccc(N2CCN(c3cccc(C(=O)N[C@H]4C5CC6CC4C[C@](O)(C6)C5)n3)[C@H](C)C2)cc1
remaining at 0.5 h [1]: 61%

SMILES: NC(=O)c1ccc(N2CCN(c3cccc(C(=O)N[C@H]4C5CC6CC4C[C@](O)(C6)C5)n3)CC2)cc1F
remaining at 0.5 h [1]: 28%

SMILES: Nc1ccc(N2CCN(c3cccc(C(=O)N[C@H]4C5CC6CC4C[C@](O)(C6)C5)n3)CC2)cc1
remaining at 0.5 h [1]: 97%

SMILES: N#Cc1ccc(N2CCN(c3cccc(C(=O)N[C@H]4C5CC6CC4C[C@](O)(C6)C5)n3)CC2)cc1
bioavailability [7]: 5%
inhibition in vivo at 30 mg/kg [9]: < 10%
inhibition in vivo at 30 mg/kg [11]: < 10%

SMILES: N#Cc1ccc(N2CCN(c3cccc(C(=O)N[C@H]4C5CC6CC4C[C@](O)(C6)C5)n3)CC2)nc1
remaining at 0.5 h [1]: 81%

SMILES: O=C(N[C@H]1C2CC3CC1C[C@](O)(C3)C2)c1cccc(N2CCN(c3ccc(F)cc3)CC2)n1
remaining at 0.5 h [1]: 73%
